Laboratory results reported in PMC7715017, “Conjugation of Synthetic Polyproline Moietes to Lipid II Binding Fragments of Nisin Yields Active and Stable Antimicrobials” (Frontiers in Microbiology, 2020).
Values after ≈ are worked out from the molar mass of the structure shown. Read-outs that look alike come from different tables or passages of the source.

How the values were obtained:
Micrococcus flavus = conditions: M. flavus; 0.15 nmol per well; 30°C overnight
Protocol: Agar well diffusion assay against Micrococcus flavus was performed as described previously ([van Heel et al., 2013]). 0.15 nmol of each sample was added to each well. The agar plate was incubated at 30°C overnight, after which the zone of inhibition was measured.
(§1) M. flavus was used as the indicator strain for the agar well diffusion assay, and 0.15 nmol of each sample was added to each well (Figure 3). […] Antimicrobial activity of all compounds was tested by growth inhibition assays against two clinically relevant Gram-positive pathogens, i.e., methicillin resistant S. aureus and vancomycin resistant E. faecium, as well as L. monocytogenes, and L. lactis. […] For this experiment, an activity test was performed against the NSR producing strain L. lactis NZ9000 (pNSR).

[1] = system: L. lactis NZ9000 (pEmpty); conditions: for MIC value, L. lactis NZ9000 (pEmpty): broth microdilution (Wiegand et al. 2008), samples in 0.05% acetic acid, strain with empty plasmid
Protocol: (§2) All samples were resuspended in 0.05% aqueous acetic acid solution and the peptide amount was quantified by HPLC according to Schmitt et al. ([Schmitt et al., 2019]). The indicator strains MW2-MRSA, Enterococcus faecium, Listeria monocytogenes, and Lactococcus lactis were first streaked on GM17 plate and cultured overnight. The peptide samples were diluted with 0.05% acetic acid to a concentration of 40–320 μM (depending on the estimated activity of the peptide and the strain tested). The MIC value test was performed according to [Wiegand et al. (2008)].
as §1

[2] = system: Enterococcus faecium LMG 16003 (vancomycin resistant, VRE)
Protocol: as §2, §1

[3] = system: MW2-MRSA (Staphylococcus aureus MW2, methicillin resistant)
Protocol: as §2, §1

[4] = system: Listeria monocytogenes LMG 10470
Protocol: as §2, §1

L. lactis NZ9000 (pNSR) = conditions: for MIC against NZ9000 with vs without NSR production: L. lactis NZ9000 (pNSR) vs NZ9000 (pEmpty); for MIC value, L. lactis NZ9000 (pNSR): broth microdilution (Wiegand et al. 2008), strain expressing nisin resistance protein NSR
Protocol: as §2, §1

[5] = MW2- ( MW2, methicillin resistant)
[6] = broth microdilution (Wiegand et al. 2008), samples in 0.05% acetic acid, quantified by HPLC
[7] = ratio of MICs vs nisin ABC + O6

| Structure (SMILES) | Antimicrobial activity (zone of inhibition) in agar well diffusion assay (Micrococcus flavus) | MIC value, L. lactis NZ9000 (pEmpty) [1] [μM] | MIC value, E. faecium ([2]; LMG 16003) [µM] | MIC value, MW2-MRSA [3, 5] [µM] | MIC value, L. monocytogenes ([4]; LMG 10470) [µM] | MIC value, E. faecium [2, 6] [µM] | Decrease of antimicrobial activity compared to full nisin, E. faecium ([2]; ratio of MICs vs nisin) [fold] | Increase of antimicrobial activity compared to nisin ABC, E. faecium ([2]; ratio of MICs vs nisin ABC) [fold] | Increase of antimicrobial activity compared to nisin ABC + O6, E. faecium [2, 7] | MIC value, MW2-MRSA [3, 6] [µM] | Increase of antimicrobial activity compared to nisin ABC, L. lactis ([1]; ratio of MICs vs nisin ABC) [fold] | Increase of antimicrobial activity compared to nisin ABC + O6, L. lactis [1, 7] | MIC value, L. monocytogenes [4, 6] [µM] | Decrease of antimicrobial activity compared to full nisin, L. monocytogenes ([4]; ratio of MICs vs nisin) [fold] | Increase of antimicrobial activity compared to nisin ABC, L. monocytogenes ([4]; ratio of MICs vs nisin ABC) [fold] | Increase of antimicrobial activity compared to nisin ABC + O6, L. monocytogenes [4, 7] | MIC against NZ9000 with vs without NSR production (L. lactis NZ9000 (pNSR)) | MIC value, L. lactis NZ9000 (pNSR) (L. lactis NZ9000 (pNSR)) [μM] |
| --- | --- | --- | --- | --- | --- | --- | --- | --- | --- | --- | --- | --- | --- | --- | --- | --- | --- | --- |
| C=C1NC(=O)[C@H]([C@@H](C)CC)NC(=O)[C@H](NC(=O)/C(=C/C)NC(=O)[C@@H](N)[C@@H](C)CC)CSC[C@@H](C(=O)N[C@H]2C(=O)N3CCC[C@H]3C(=O)NCC(=O)N[C@H](C(=O)N[C@@H](CCCCN)C(=O)NCCCn3cc(CCC(=O)N4[C@H](C(=O)N5[C@H](C(=O)N6[C@H](C(=O)N7[C@H](C(=O)N8[C@H](C(=O)N9[C@H](C(=O)N[C@@H](CCCCN)C(=O)N[C@@H](CCCCN)C(=O)N[C@@H](CCCCN)C(=O)O)C[C@@H]%10CCCC[C@@H]%109)C[C@@H]9CCCC[C@@H]98)C[C@@H]8CCCC[C@@H]87)C[C@@H]7CCCC[C@@H]76)C[C@@H]6CCCC[C@@H]65)C[C@@H]5CCCC[C@@H]54)nn3)CS[C@H]2C)NC(=O)[C@H](CC(C)C)NC1=O [Nisin AB + O6K3] | the only active one | 10 |  |  |  |  |  |  |  |  |  |  |  |  |  |  |  |  |
| C=C1NC(=O)[C@H]([C@@H](C)CC)NC(=O)[C@H](NC(=O)/C(=C/C)NC(=O)[C@@H](N)[C@@H](C)CC)CSC[C@@H](C(=O)N[C@H]2C(=O)N3CCC[C@H]3C(=O)NCC(=O)N[C@H](C(=O)N[C@@H](CCCCN)C(=O)O)CS[C@H]2C)NC(=O)[C@H](CC(C)C)NC1=O [Nisin AB, reference compound] | not active alone | >40 | 160 (≈ 184 µg/mL) | >320 | >320 |  |  |  |  |  |  |  |  |  |  |  |  |  |
| C=C1NC(=O)[C@H]([C@@H](C)CC)NC(=O)[C@H](NC(=O)/C(=C/C)NC(=O)[C@@H](N)[C@@H](C)CC)CSC[C@@H](C(=O)N[C@H]2C(=O)N3CCC[C@H]3C(=O)NCC(=O)N[C@H](C(=O)N[C@@H](CCCCN)C(=O)N[C@H]3C(=O)NCC(=O)N[C@@H](C)C(=O)N[C@@H](CC(C)C)C(=O)N[C@@H](CCSC)C(=O)NCC(=O)N[C@H](C(=O)N[C@@H](CC(N)=O)C(=O)NCCCn4cc(CCC(=O)N5[C@H](C(=O)N6[C@H](C(=O)N7[C@H](C(=O)N[C@@H](CCCCN)C(=O)N[C@@H](CCCCN)C(=O)N[C@@H](CCCCN)C(=O)O)C[C@@H]8CCCC[C@@H]87)C[C@@H]7CCCC[C@@H]76)C[C@@H]6CCCC[C@@H]65)nn4)CS[C@H]3C)CS[C@H]2C)NC(=O)[C@H](CC(C)C)NC1=O [Nisin ABC + O3K3] | considerably higher than that of nisin ABC | 2.5 | 40 | 80 | 80 |  |  |  |  |  |  |  |  |  |  |  |  |  |
| C=C1NC(=O)[C@H]([C@@H](C)CC)NC(=O)[C@H](NC(=O)/C(=C/C)NC(=O)[C@@H](N)[C@@H](C)CC)CSC[C@@H](C(=O)N[C@H]2C(=O)N3CCC[C@H]3C(=O)NCC(=O)N[C@H](C(=O)N[C@@H](CCCCN)C(=O)N[C@H]3C(=O)NCC(=O)N[C@@H](C)C(=O)N[C@@H](CC(C)C)C(=O)N[C@@H](CCSC)C(=O)NCC(=O)N[C@H](C(=O)N[C@@H](CC(N)=O)C(=O)NCCCn4cc(CCC(=O)N5[C@H](C(=O)N6[C@H](C(=O)N7[C@H](C(=O)N8[C@H](C(=O)N9[C@H](C(=O)N%10[C@H](C(=O)N[C@@H](CCCCN)C(=O)N[C@@H](CCCCN)C(=O)N[C@@H](CCCCN)C(=O)O)C[C@@H]%11CCCC[C@@H]%11%10)C[C@@H]%10CCCC[C@@H]%109)C[C@@H]9CCCC[C@@H]98)C[C@@H]8CCCC[C@@H]87)C[C@@H]7CCCC[C@@H]76)C[C@@H]6CCCC[C@@H]65)nn4)CS[C@H]3C)CS[C@H]2C)NC(=O)[C@H](CC(C)C)NC1=O [Nisin ABC + O6K3] |  | 2.5 |  |  |  | 2.5 | 8 | 16 | twice | 80 | 2 | twice | 10 | 4 | 4 | twice | identical MICs | 2.5 |
| C=C1NC(=O)[C@H]([C@@H](C)CC)NC(=O)[C@H](NC(=O)/C(=C/C)NC(=O)[C@@H](N)[C@@H](C)CC)CSC[C@@H](C(=O)N[C@H]2C(=O)N3CCC[C@H]3C(=O)NCC(=O)N[C@H](C(=O)N[C@@H](CCCCN)C(=O)N[C@H]3C(=O)NCC(=O)N[C@@H](C)C(=O)N[C@@H](CC(C)C)C(=O)N[C@@H](CCSC)C(=O)NCC(=O)N[C@H](C(=O)N[C@@H](CC(N)=O)C(=O)NCCCn4cc(CCC(=O)N5[C@H](C(=O)N6[C@H](C(=O)N7[C@H](C(=O)N8[C@H](C(=O)N9[C@H](C(=O)N%10[C@H](C(=O)O)C[C@@H]%11CCCC[C@@H]%11%10)C[C@@H]%10CCCC[C@@H]%109)C[C@@H]9CCCC[C@@H]98)C[C@@H]8CCCC[C@@H]87)C[C@@H]7CCCC[C@@H]76)C[C@@H]6CCCC[C@@H]65)nn4)CS[C@H]3C)CS[C@H]2C)NC(=O)[C@H](CC(C)C)NC1=O [Nisin ABC + O6] |  | 5.0 | 5 | 80 | 20 |  |  |  |  |  |  |  |  |  |  |  | identical MICs | 5.0 |
